Test results from patent publication US9244057B2, “Multiphase microarrays and uses thereof” (THE REGENTS OF THE UNIVERSITY OF MICHIGAN, priority 2010, dated 2016).
Each block holds one molecule with its values, some of them ahead of it.

Tested on: MDA-MB-231 breast cancer cells
Test: cell-exclusion migration assay (aqueous two-phase system patterning, 96-well plate)
Type: cell-based, human
Conditions: MDA-MB-231 cells; for effect on motility/migration of cells (in words): blebbistatin 5-200 μM for 18 hrs, then another 12 hrs in culture medium before imaging
Procedure: 6.4% (w/w) solution of the DEX 500K phase was prepared in culture media and kept at 4° C. until use. The tip magazine of an automated liquid handler (CyBi-Well, CyBio) was loaded with 96 sterile 25 μl pipette tips (CyBio). 75 μl of the DEX solution was pipetted into each well of a 96-well microplate (Corning), which was then placed on the stage of the liquid handler. To load pipette tips with the DEX solution, the stage was slowly raised until the pipette tips were slightly inside the DEX solution. 10 μl of the DEX solution was aspirated into the tips at a rate of 5 μl/s. The loaded tips were brought within 200 μm of the bottom of the wells of an empty microplate and 0.8 μl of the DEX solution was dispensed onto the surface at a rate of 0.5 μl/s to form circular droplets. The microplate was kept in a culture hood for at least 24 hrs to allow the droplets to dry. Images of the dried droplets were captured using a bright-field microscope (Nikon, TS-200). The Feret diameters of the droplets were determined using the “Analyze Particles” function of ImageJ (NIH). Droplets whose Feret diameters were not within ˜1% of the desired mean diameter were excluded from use in the assay. The entire printing and drying process was performed in a sterile culture hood.
Three different human cancer cell lines were used: MDA-MB-231 breast cancer cells (ATCC) were cultured in DMEM medium supplemented with 10% heat-inactivated fetal bovine serum (HI-FBS, Invitrogen), 1% glutamine (Invitrogen), and 1% antibiotic. A549 lung cancer cells (ATCC) were cultured using F-12K medium (ATCC) supplemented with 10% HI-FBS and 1% antibiotic. PC-3 prostate cancer cells were maintained in DMEM supplemented with 10% HI-FBS and 1% antibiotic. Cells were maintained in a cell culture incubator at 37° C. with 5% CO2 and 95% humidity. When at desired confluence, cells were washed with PBS and Hank's-based enzyme-free cell dissociation buffer was added to the flask. Cells were incubated for 30 min and then collected and suspended in complete growth medium. After centrifuging down for 5 min at 4° C. and 1000 rpm, cells were resuspended in appropriate volume of the culture medium to give a density of 2×10^6 cells/ml.
5.0% (w/w) solution of the PEG 35K phase was prepared in culture media and kept at 4° C. until use. This solution was added to the cell suspension at a 1:1 (v/v) ratio to give a final PEG phase concentration of 2.5%. Prior to this step, cell suspension density was adjusted by addition of culture media to result in a final density of 4.5×10^4 MDA-MB-231 cells, 4.0×10^4 A549 cells, and 4.5×10^4 PC-3 cells after addition of the PEG-containing media. These cell densities were selected from preliminary experiments that evaluated the number of cells required to form a confluent monolayer per unit surface area. 80 μl of the resulting solution was added to each well of a 96-well plate, which was incubated at 37° C. with 5% CO2 and 95% humidity overnight (12 hrs). Then, the two-phase media was washed out and replaced with regular culture media. This was set as the time zero of the migration experiment.
After allowing MDA-MB-231 cells to spread and form a confluent monolayer around the cell excluded gaps, they were treated with (±)-blebbistatin at different concentrations in the range 5-200 μM or anti-cancer drugs paclitaxel, colchicine, and nocodazole in the concentration range of 1-1000 nM. Cells were incubated for 18 hrs in the presence of blebbistatin, washed with PBS once, and regular culture medium was added. Incubation continued for another 12 hrs before imaging. To study the effect of anti-cancer drugs, cells were incubated with each drug for 2 hrs, washed with PBS, and then supplied with culture medium. Imaging was performed after 30 hrs of incubation. Experiments were set in 30 replicates. All reagents were purchased from Sigma.
After migration experiments were complete, cells were stained with a 5 μM Calcein AM and the plates were incubated at 37° C. for 30 min. […]

[1] = 2 hr treatment, tested 1-1000 nM, imaging after 30 hrs

Structure (SMILES): CC(=O)O[C@H]1C(=O)[C@@]2(C)[C@H]([C@H](OC(=O)c3ccccc3)[C@]3(O)C[C@H](OC(=O)[C@H](O)[C@@H](NC(=O)c4ccccc4)c4ccccc4)C(C)=C1C3(C)C)[C@]1(OC(C)=O)CO[C@@H]1C[C@@H]2O [Paclitaxel, paclitaxel]
concentration range showing potency for inhibiting cell motility [1]: 0.01 to 0.1 µM

Structure (SMILES): COC(=O)Nc1nc2ccc(C(=O)c3cccs3)cc2[nH]1 [Nocodazole, nocodazole]
reduction of migration [1]: less than 20%

IC50 (six concentrations 5-200 μM for 18 hrs, BioDataFit software, read-out: IC50 for inhibition of cell migration): 31.8 µM
Structure (SMILES): Cc1ccc2c(c1)C(=O)C1(O)CCN(c3ccccc3)C1=N2 (racemic) [blebbistatin, (±)-blebbistatin]
effect on motility/migration of cells (in words): dose-dependent response | effect on motility/migration of cells (in words) (listed as Blebbistatin): dose-dependent inhibition

Structure (SMILES): COc1cc2c(c(OC)c1OC)-c1ccc(OC)c(=O)cc1[C@@H](NC(C)=O)CC2 [colchicine]
effect on cell motility (in words) (2 hr treatment, tested 1-1000 nM, imaging after 30 hrs, especially above 100 nM): reduced cell motility in a dose-dependent manner
